Laboratory results from patent US20230301300A1, “HERBICIDAL COMPOSITIONS” (SYNGENTA CROP PROTECTION AG, priority 2020, published 2023).

Key:
Test in all cases: B2 Post-Emergence Efficacy - Test 2
Assay type in all cases: in vivo
[1] = test system: Euphorbia hetrophylla (EPHHL); settings: 15 days after application, 0-100 scale
Protocol: (§1) Seeds of a variety of test species (see Table B1) were sown in standard soil in pots. After cultivation for 12 days (post-emergence) under controlled conditions in a glasshouse (at 24/18° C. or 20/16° C., at day/night; 16 hours light; 65% humidity), the plants were sprayed with an aqueous spray solution derived from the formulation of the technical active ingredient dissolved in IF50 (see Table B2 for composition) and adjuvant (Genapol X080) was added to the spray solution at a rate of 0.2% v/v.
(§2) After application, the test plants were grown in a glasshouse under controlled conditions (as above) and watered twice daily. Herbicidal activity was evaluated 15 days after application on a 0-100 scale. The results, where 0=no damage to test plant and 100=total kill of test plant are shown below in Tables 8 to 11.

[2] = test system: Xanthium strumarium (XANST); settings: 15 days after application, 0-100 scale
Protocol: as §1, §2

[3] = test system: Stellaria media (STEME); settings: 15 days after application, 0-100 scale
Protocol: as §1, §2

[4] = test system: Zea mays (ZEAMX); settings: 15 days after application; for Herbicidal activity ZEAMX: 0-100 scale; for Herbicidal activity on a 0-100 scale, ZEAMX: 0=no damage, 100=total kill
Protocol: as §1, §2

[5] = test system: Glycine max (GLXMA); settings: 15 days after application; for Herbicidal activity GLXMA: 0-100 scale; for Herbicidal activity on a 0-100 scale, GLXMA: 0=no damage, 100=total kill
Protocol: as §1, §2

[6] = test system: Sorghum bicolour (SORVU); settings: 15 days after application, 0=no damage, 100=total kill
Protocol: as §1, §2

[7] = test system: Panicum miliaceum (PANMI); settings: 15 days after application, 0=no damage, 100=total kill
Protocol: as §1, §2

[8] = test system: Chenopodium album (CHEAL); settings: 15 days after application, 0-100 scale
Protocol: as §1, §2

[9] = test system: Sida spinosa (SIDSP); settings: 15 days after application, 0-100 scale
Protocol: as §1, §2

[10] = test system: Poa annua (POAAN); settings: 15 days after application, 0-100 scale
Protocol: as §1, §2

[11] = test system: Lolium perenne (LOLPE); settings: 15 days after application, 0-100 scale
Protocol: as §1, §2

[12] = test system: Orysa sativa (ORYSA); settings: 15 days after application; for Herbicidal activity ORYSA: 0-100 scale; for Herbicidal activity on a 0-100 scale, ORYSA: 0=no damage, 100=total kill
Protocol: as §1, §2

[13] = test system: Brassica napus (BRSNN); settings: 15 days after application, 0-100 scale
Protocol: as §1, §2

[14] = test system: Alopecurus myosuroides (ALOMY); settings: 15 days after application, 0-100 scale
Protocol: as §1, §2

[15] = test system: Echinochloa crus galli (ECHCG); settings: 15 days after application, 0=no damage, 100=total kill
Protocol: as §1, §2

[16] = test system: Abutilon theophrasti (ABUTH); settings: 15 days after application, 0-100 scale
Protocol: as §1, §2

[17] = test system: Bromus tectorum (BROTE); settings: 15 days after application, 0-100 scale
Protocol: as §1, §2

Structure (SMILES): Cc1nn(C)c(=O)c(-c2c(F)ccc(Cl)c2CCc2ccc(C(F)(F)F)nc2)c1O [Compound 1.042, 4-[3-chloro-6-fluoro-2-[2-[6-(trifluoromethyl)-3-pyridyl]ethyl]phenyl]-5-hydroxy-2,6-dimethyl-pyridazin-3-one]
- Herbicidal activity EPHHL ([1]; 15 g/Ha): 80
- Herbicidal activity EPHHL ([1]; 30 g/Ha): 90
- Herbicidal activity EPHHL ([1]; 60 g/Ha): 90
- Herbicidal activity EPHHL ([1]; 125 g/Ha): 100
- Herbicidal activity EPHHL ([1]; 250 g/Ha): 100
- Herbicidal activity EPHHL ([1]; 500 g/Ha): 100
- Herbicidal activity XANST ([2]; 15 g/Ha): 80
- Herbicidal activity XANST ([2]; 125 g/Ha): 90
- Herbicidal activity XANST ([2]; 250 g/Ha): 100
- Herbicidal activity XANST ([2]; 500 g/Ha): 100
- Herbicidal activity STEME ([3]; 15 g/Ha): 100
- Herbicidal activity STEME ([3]; 30 g/Ha): 100
- Herbicidal activity STEME ([3]; 60 g/Ha): 90
- Herbicidal activity STEME ([3]; 125 g/Ha): 100
- Herbicidal activity STEME ([3]; 250 g/Ha): 100
- Herbicidal activity STEME ([3]; 500 g/Ha): 100
- Herbicidal activity ZEAMX ([4]; 15 g/Ha): 0
- Herbicidal activity on a 0-100 scale, ZEAMX ([4]; 15 g/Ha): 0
- Herbicidal activity ZEAMX ([4]; 30 g/Ha): 10
- Herbicidal activity on a 0-100 scale, ZEAMX ([4]; 30 g/Ha): 10
- Herbicidal activity ZEAMX ([4]; 60 g/Ha): 20
- Herbicidal activity on a 0-100 scale, ZEAMX ([4]; 60 g/Ha): 20
- Herbicidal activity ZEAMX ([4]; 125 g/Ha): 60
- Herbicidal activity on a 0-100 scale, ZEAMX ([4]; 125 g/Ha): 60
- Herbicidal activity ZEAMX ([4]; 250 g/Ha): 70
- Herbicidal activity on a 0-100 scale, ZEAMX ([4]; 250 g/Ha): 70
- Herbicidal activity ZEAMX ([4]; 500 g/Ha): 90
- Herbicidal activity on a 0-100 scale, ZEAMX ([4]; 500 g/Ha): 90
- Herbicidal activity GLXMA ([5]; 15 g/Ha): 60
- Herbicidal activity on a 0-100 scale, GLXMA ([5]; 15 g/Ha): 60
- Herbicidal activity GLXMA ([5]; 30 g/Ha): 80
- Herbicidal activity on a 0-100 scale, GLXMA ([5]; 30 g/Ha): 80
- Herbicidal activity GLXMA ([5]; 60 g/Ha): 90
- Herbicidal activity on a 0-100 scale, GLXMA ([5]; 60 g/Ha): 90
- Herbicidal activity GLXMA ([5]; 125 g/Ha): 90
- Herbicidal activity on a 0-100 scale, GLXMA ([5]; 125 g/Ha): 90
- Herbicidal activity GLXMA ([5]; 250 g/Ha): 100
- Herbicidal activity on a 0-100 scale, GLXMA ([5]; 250 g/Ha): 100
- Herbicidal activity GLXMA ([5]; 500 g/Ha): 100
- Herbicidal activity on a 0-100 scale, GLXMA ([5]; 500 g/Ha): 100
- Herbicidal activity on a 0-100 scale, SORVU ([6]; 15 g/Ha): 0
- Herbicidal activity on a 0-100 scale, SORVU ([6]; 30 g/Ha): 70
- Herbicidal activity on a 0-100 scale, SORVU ([6]; 60 g/Ha): 80
- Herbicidal activity on a 0-100 scale, SORVU ([6]; 125 g/Ha): 90
- Herbicidal activity on a 0-100 scale, SORVU ([6]; 250 g/Ha): 90
- Herbicidal activity on a 0-100 scale, SORVU ([6]; 500 g/Ha): 100
- Herbicidal activity on a 0-100 scale, PANMI ([7]; 15 g/Ha): 10
- Herbicidal activity on a 0-100 scale, PANMI ([7]; 30 g/Ha): 60
- Herbicidal activity on a 0-100 scale, PANMI ([7]; 60 g/Ha): 80
- Herbicidal activity on a 0-100 scale, PANMI ([7]; 125 g/Ha): 90
- Herbicidal activity on a 0-100 scale, PANMI ([7]; 250 g/Ha): 100
- Herbicidal activity on a 0-100 scale, PANMI ([7]; 500 g/Ha): 100
- Herbicidal activity CHEAL ([8]; 30 g/Ha): 90
- Herbicidal activity CHEAL ([8]; 60 g/Ha): 90
- Herbicidal activity CHEAL ([8]; 125 g/Ha): 90
- Herbicidal activity CHEAL ([8]; 250 g/Ha): 100
- Herbicidal activity CHEAL ([8]; 500 g/Ha): 100
- Herbicidal activity SIDSP ([9]; 15 g/Ha): 90
- Herbicidal activity SIDSP ([9]; 30 g/Ha): 90
- Herbicidal activity SIDSP ([9]; 60 g/Ha): 100
- Herbicidal activity SIDSP ([9]; 250 g/Ha): 100
- Herbicidal activity SIDSP ([9]; 500 g/Ha): 100
- Herbicidal activity POAAN ([10]; 15 g/Ha): 20
- Herbicidal activity POAAN ([10]; 30 g/Ha): 70
- Herbicidal activity POAAN ([10]; 60 g/Ha): 80
- Herbicidal activity POAAN ([10]; 125 g/Ha): 90
- Herbicidal activity POAAN ([10]; 250 g/Ha): 90
- Herbicidal activity POAAN ([10]; 500 g/Ha): 90
- Herbicidal activity LOLPE ([11]; 15 g/Ha): 60
- Herbicidal activity LOLPE ([11]; 30 g/Ha): 70
- Herbicidal activity LOLPE ([11]; 60 g/Ha): 70
- Herbicidal activity LOLPE ([11]; 125 g/Ha): 90
- Herbicidal activity LOLPE ([11]; 250 g/Ha): 90
- Herbicidal activity LOLPE ([11]; 500 g/Ha): 90
- Herbicidal activity ORYSA ([12]; 15 g/Ha): 0
- Herbicidal activity on a 0-100 scale, ORYSA ([12]; 15 g/Ha): 0
- Herbicidal activity ORYSA ([12]; 30 g/Ha): 0
- Herbicidal activity on a 0-100 scale, ORYSA ([12]; 30 g/Ha): 0
- Herbicidal activity ORYSA ([12]; 60 g/Ha): 0
- Herbicidal activity on a 0-100 scale, ORYSA ([12]; 60 g/Ha): 0
- Herbicidal activity ORYSA ([12]; 125 g/Ha): 0
- Herbicidal activity on a 0-100 scale, ORYSA ([12]; 125 g/Ha): 0
- Herbicidal activity ORYSA ([12]; 250 g/Ha): 20
- Herbicidal activity on a 0-100 scale, ORYSA ([12]; 250 g/Ha): 20
- Herbicidal activity ORYSA ([12]; 500 g/Ha): 50
- Herbicidal activity on a 0-100 scale, ORYSA ([12]; 500 g/Ha): 50
- Herbicidal activity BRSNN ([13]; 15 g/Ha): 90
- Herbicidal activity BRSNN ([13]; 30 g/Ha): 90
- Herbicidal activity BRSNN ([13]; 60 g/Ha): 90
- Herbicidal activity BRSNN ([13]; 125 g/Ha): 90
- Herbicidal activity BRSNN ([13]; 250 g/Ha): 90
- Herbicidal activity BRSNN ([13]; 500 g/Ha): 90
- Herbicidal activity ALOMY ([14]; 15 g/Ha): 20
- Herbicidal activity ALOMY ([14]; 30 g/Ha): 60
- Herbicidal activity ALOMY ([14]; 60 g/Ha): 80
- Herbicidal activity ALOMY ([14]; 125 g/Ha): 80
- Herbicidal activity ALOMY ([14]; 250 g/Ha): 90
- Herbicidal activity ALOMY ([14]; 500 g/Ha): 90
- Herbicidal activity on a 0-100 scale, ECHCG ([15]; 15 g/Ha): 80
- Herbicidal activity on a 0-100 scale, ECHCG ([15]; 30 g/Ha): 90
- Herbicidal activity on a 0-100 scale, ECHCG ([15]; 60 g/Ha): 90
- Herbicidal activity on a 0-100 scale, ECHCG ([15]; 125 g/Ha): 90
- Herbicidal activity on a 0-100 scale, ECHCG ([15]; 250 g/Ha): 100
- Herbicidal activity on a 0-100 scale, ECHCG ([15]; 500 g/Ha): 100
- Herbicidal activity ABUTH ([16]; 15 g/Ha): 80
- Herbicidal activity ABUTH ([16]; 30 g/Ha): 90
- Herbicidal activity ABUTH ([16]; 60 g/Ha): 100
- Herbicidal activity ABUTH ([16]; 125 g/Ha): 100
- Herbicidal activity ABUTH ([16]; 250 g/Ha): 100
- Herbicidal activity ABUTH ([16]; 500 g/Ha): 100
- Herbicidal activity BROTE ([17]; 15 g/Ha): 20
- Herbicidal activity BROTE ([17]; 30 g/Ha): 30
- Herbicidal activity BROTE ([17]; 60 g/Ha): 70
- Herbicidal activity BROTE ([17]; 125 g/Ha): 80
- Herbicidal activity BROTE ([17]; 250 g/Ha): 80
- Herbicidal activity BROTE ([17]; 500 g/Ha): 90
